Substitutions are numbered along the chain they refer to. Counter-ions that a name gives are not always drawn.
Legend:
[1] = biological target: T1, MRGPRX2-MUT (MRGPRX2 N62S mutation) (Homo sapiens, UniProt Q96LB1, N62S); experiment: Primary HTS, Ca2+ mobilization (fluorescence ratio, B-score) in HEK293-Gα15 cells stably expressing the MRGPRX2 N62S mutation; type: cell-based; details: for B-scores (MUT): 10 μM compound, MRGPRX2-MUT (N62S) cells; for Change of B-scores (%): 10 μM
T1 construct: expressed in transfected cells
T1 sequence (Q96LB1 1-330 N62S): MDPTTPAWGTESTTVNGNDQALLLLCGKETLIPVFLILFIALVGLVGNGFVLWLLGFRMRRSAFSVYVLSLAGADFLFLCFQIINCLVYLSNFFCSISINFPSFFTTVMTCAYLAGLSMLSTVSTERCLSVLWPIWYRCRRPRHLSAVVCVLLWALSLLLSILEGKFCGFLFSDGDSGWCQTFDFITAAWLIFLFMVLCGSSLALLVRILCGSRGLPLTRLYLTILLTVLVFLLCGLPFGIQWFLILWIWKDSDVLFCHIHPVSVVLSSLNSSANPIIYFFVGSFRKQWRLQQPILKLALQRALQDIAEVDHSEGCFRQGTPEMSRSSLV
Description: (§1) We performed an experimental HTS on the Johns Hopkins Drug Library, which includes 1,811 (57%) FDA-approved drugs among 3,456 total compounds (28% of all known drugs worldwide) ([15]). We performed the HTS at the Johns Hopkins University ChemBioCORE Facility and employed HEK293-Gα15 cell lines that stably expressed MRGPRX2 protein.
(§2) We utilized 10 μM compounds (each compound was tested in triplicate) and calculated the compound effect using the signal-to-background fluorescence ratio (see Supplementary Methods).
(§3) In the HTS, we determined MRGPRX2 activation by a Ca^2+ mobilization assay that recorded a fluorescence change by utilizing a Functional Drug Screening System (FDSS 6000; Hamamatsu); we evaluated the compound effect using the calculated fluorescence ratio. We further applied the B-score normalization, which provided robust corrections for variation in fluorescence ratio ([22]).
(§4) We performed an experimental high-throughput screening (HTS) on the Johns Hopkins Drug Library (JHDL), which includes 1,811 (57%) FDA-approved drugs among 3,456 total compounds (28% of all known drugs worldwide). The remaining compounds in JHDL are catalogued in one or more of the resources below: British Approved Names (BAN); Dénominations Communes Françaises (DCF); International Nonproprietary Names (INN); Japanese Adopted Names (JAN); MI (Merck Index); National Formulary drug name (NF); and United States Accepted Names (USAN). The JHU drug library is stocked in 96 well plates at 10 mM in 100% DMSO and stored at -80 °C. We used a final concentration of 10 uM for each compound and DMSO concentration of 0.1% (tested in triplicate). […] We evaluated compound effect using the calculated fluorescence ratio. We further calculated B-scores, which are a relative potency score similar to Z scores in that they are the ratio of an adjusted raw value in the numerator to a measure of variability in the denominator.

[2] = biological target: T2, MRGPRX2-WT (wild-type MRGPRX2 receptor) (Homo sapiens, UniProt Q96LB1); experiment: Primary HTS, Ca2+ mobilization (fluorescence ratio, B-score) in HEK293-Gα15 cells stably expressing wild-type MRGPRX2; type: cell-based; details: 10 μM compound
T2 construct: expressed in transfected cells
T2 sequence (Q96LB1 1-330): T1 sequence (Q96LB1 1-330 N62S) with S62N
Description: as §1, §2, §3, §4

[3] = MRGPRX2-MUT versus MRGPRX2-WT cells, Supplementary Table 2
[4] = MRGPRX2-MUT in comparison to MRGPRX2-WT cells, Supplementary Table 1
[5] = MRGPRX2-MUT in comparison to MRGPRX2-WT cells, Table 1
[6] = Supplementary Table 2, listed as Dextromethorphan (Delsym)

| Structure (SMILES) | B-scores (MUT) ([1]; Supplementary Table 2) | Change of B-scores (%) [1, 3] | B-scores (WT) ([2]; Supplementary Table 2) | B-scores (MUT) ([1]; Supplementary Table 1) | B-scores (MUT) ([1]; Table 1) | Change of B-scores (%) [1, 4] | Change of B-scores (%) [1, 5] | B-scores (WT) ([2]; Supplementary Table 1) | B-scores (WT) ([2]; Table 1) | B-scores (MUT) [1, 6] | Change of B-scores (%) ([1]; MRGPRX2-MUT versus MRGPRX2-WT cells, Supplementary Table 2, listed as Dextromethorphan (Delsym)) | B-scores (WT) [2, 6] |
| --- | --- | --- | --- | --- | --- | --- | --- | --- | --- | --- | --- | --- |
| O=C(O)c1cn(C2CC2)c2cc(N3CCNCC3)c(F)cc2c1=O [Ciprofloxacin] | 1.91 | -74% | 7.33 |  |  |  |  |  |  |  |  |  |
| Cl.NC1CCN(c2c(F)cc3c(=O)c(C(=O)O)cn(C4CC4)c3c2Cl)C1 (centres unmarked) [Clinafoxacin Hydrochloride] |  |  |  | 0.92 | 0.92 | -96.48% | -96.48% | 26.08 | 26.08 |  |  |  |
| CN(C)CCCN1c2ccccc2CCc2ccc(Cl)cc21 [Clomipramine Hydrochloride] | 2.17 | -92.83% | 30.29 | 2.17 | 2.17 | -92.83% | -92.83% | 30.29 | 30.29 |  |  |  |
| C=C[C@@]1(C)CC(=O)[C@]2(O)[C@@]3(C)[C@@H](O)CCC(C)(C)[C@@H]3[C@H](O)[C@H](OC(C)=O)[C@@]2(C)O1 [Colforsin] |  |  |  | 0.76 |  | -96.40% |  | 21.10 |  |  |  |  |
| C[C@@H](Oc1cc(-c2cnn(C3CCNCC3)c2)cnc1N)c1c(Cl)ccc(F)c1Cl [Crizotinib] |  |  |  |  | -0.44 | -101.99% | -101.99% | 22.06 | 22.06 |  |  |  |
| CN(C)CCC=C1c2ccccc2C=Cc2ccccc21 [Cyclobenzaprine Hydrochloride] | 1.22 | -92.62% | 16.49 |  |  |  |  |  |  |  |  |  |
| CN1CCC(=C2c3ccccc3C=Cc3ccccc32)CC1 [Cyproheptadine Hydrochloride] |  |  |  | 2.29 | 2.29 | -94.50% | -94.50% | 41.66 | 41.66 |  |  |  |
| CO[C@@H](C(=O)N1Cc2n[nH]c(NC(=O)c3ccc(N4CCN(C)CC4)cc3)c2C1)c1ccccc1 [Danusertib] |  |  |  | 0.61 | 0.61 | -97.00% | -97.00% | 20.37 | 20.37 |  |  |  |
| COc1cccc2c1C(=O)c1c(O)c3c(c(O)c1C2=O)C[C@@](O)(C(C)=O)C[C@@H]3O[C@H]1C[C@H](N)[C@H](O)[C@H](C)O1 [Daunorubicin] | 37.13 | 319.41% | 8.85 |  |  |  |  |  |  |  |  |  |
| CNCCCN1c2ccccc2CCc2ccccc21 [Desipramine Hydrochloride] | -2.96 | -139.62% | 7.48 |  |  |  |  |  |  |  |  |  |
| CNCCCN1c2ccccc2CCc2ccccc21 [Desipramine] | 1.19 | -91.45% | 13.96 |  |  |  |  |  |  |  |  |  |
| CN(C)CC[C@@H](c1ccc(Cl)cc1)c1ccccn1 [Dexchlorpheniramine Maleate] | 0.56 | -97.76% | 24.82 | 0.56 | 0.56 | -97.76% | -97.76% | 24.82 | 24.82 |  |  |  |
| Br.COc1ccc2c(c1)[C@]13CCCC[C@@H]1[C@H](C2)N(C)CC3.O [Dextromethorphan Hydrobromide Monohydrate] |  |  |  | 54.88 |  | 138.39% |  | 23.02 |  |  |  |  |
| COc1ccc2c(c1)[C@]13CCCC[C@@H]1[C@H](C2)N(C)CC3 [Dextromethorphan hydrobromide] | 54.88 | 138.39% | 23.02 | 84.34 |  | 119.23% |  | 38.47 |  | 84.34 | 119.23% | 38.47 |
| CN1CC[C@@]23CCCC[C@@H]2[C@@H]1Cc1ccc(O)cc13 [Dextrorphan] | 68.33 | 113.94% | 31.94 |  |  |  |  |  |  |  |  |  |
| CN(C)CCN1C(=O)c2ccccc2N(C)c2ccccc21 [Dibenzepin] |  |  |  |  | -1.62 | -106.37% | -106.37% | 25.48 | 25.48 |  |  |  |
| CN1CCN(c2cc3c(cc2F)c(=O)c(C(=O)O)cn3-c2ccc(F)cc2)CC1 [Difloxacin Hydrochloride] | -1.54 | -103.45% | 44.81 | 1.54 | -1.54 | -103.45% | -103.45% | 44.81 | 44.81 |  |  |  |
| COc1ccc([C@@H]2Sc3ccccc3N(CCN(C)C)C(=O)[C@@H]2OC(C)=O)cc1 [Diltiazem Hydrochloride] |  |  |  |  |  | -104.18% |  | 22.99 |  |  |  |  |
| CCCCC[C@H](O)/C=C/[C@H]1[C@H](O)CC(=O)[C@@H]1C/C=C\CCCC(=O)O [Dinoprostone (Prostaglandin E2)] |  |  |  | 17.30 |  | -57.38% |  | 40.59 |  |  |  |  |
| CN(C)CCOC(c1ccccc1)c1ccccc1 [Diphenhydramine Hydrochloride] | 0.66 | -93.55% | 10.26 |  |  |  |  |  |  |  |  |  |
| CN(C)CCC=C1c2ccccc2COc2ccccc21 [Doxepin Hydrochloride] | 1.85 | -85.71% | 12.95 |  |  |  |  |  |  |  |  |  |
| CNCC[C@H](Oc1cccc2ccccc12)c1cccs1 [Duloxetine Hydrochloride] |  |  |  | 0.64 |  | -98.55% |  | 44.22 |  |  |  |  |
| CNC[C@H](O)c1ccc(O)c(O)c1 [Epinephrine Bitartrate] | 11.72 | -54.24% | 25.6 | 11.72 |  | -54.24% |  | 25.60 |  |  |  |  |
| CNC[C@H](O)c1ccc(O)c(O)c1 [Epinephrine] | 8.28 | -52.73% | 17.52 |  |  |  |  |  |  |  |  |  |
| CCCCC[C@H](O)/C=C/[C@@H]1[C@H]2C/C(=C/CCCC(=O)O)O[C@H]2C[C@H]1O [Epoprostenol] |  |  |  | 10.83 |  | -60.51% |  | 27.44 |  |  |  |  |
| CC(Cc1ccc(O)cc1)NCC(O)c1cc(O)cc(O)c1 (centres unmarked) [Fenoterol Hydrobromide] | -0.03 | -100.16% | 20.31 |  |  | -100.16% |  | 20.31 |  |  |  |  |
| CC(Cc1ccc(O)cc1)NCC(O)c1cc(O)cc(O)c1 (centres unmarked) [Fenoterol] | 13.78 | -41.33% | 23.48 | 13.78 |  | -41.33% |  | 23.48 |  |  |  |  |
